Data: patent US20090118332A1, “Therapeutic Agents - 551” (AstraZeneca AB, priority 2006, published 2009)

Target: T1, human Fatty Acid Synthase (Homo sapiens, UniProt P49327)
T1 construct: made in house
Assay: Human FAS enzyme assay (decrease in NADPH fluorescence)
Format: biochemical
Conditions: for inhibition at 100 µM: % inhibition at a concentration of 100 μmolar; for IC50, inhibition of human Fatty Acid Synthase: FAS enzyme assay, IC50 from fitted sigmoid curves
Summary of the method: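 In-house human FAS was preincubated with compound and NADPH for 15 min at room temperature in 0.1 M Tris pH 7.5 with EDTA, glutathione and BSA. Malonyl CoA and acetyl CoA (500 μM and 150 μM in the added mix) were then added for 60 min. IC50 came from time-zero-subtracted NADPH fluorescence (340/460 nm).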

T1 sequence (P49327 whole entry): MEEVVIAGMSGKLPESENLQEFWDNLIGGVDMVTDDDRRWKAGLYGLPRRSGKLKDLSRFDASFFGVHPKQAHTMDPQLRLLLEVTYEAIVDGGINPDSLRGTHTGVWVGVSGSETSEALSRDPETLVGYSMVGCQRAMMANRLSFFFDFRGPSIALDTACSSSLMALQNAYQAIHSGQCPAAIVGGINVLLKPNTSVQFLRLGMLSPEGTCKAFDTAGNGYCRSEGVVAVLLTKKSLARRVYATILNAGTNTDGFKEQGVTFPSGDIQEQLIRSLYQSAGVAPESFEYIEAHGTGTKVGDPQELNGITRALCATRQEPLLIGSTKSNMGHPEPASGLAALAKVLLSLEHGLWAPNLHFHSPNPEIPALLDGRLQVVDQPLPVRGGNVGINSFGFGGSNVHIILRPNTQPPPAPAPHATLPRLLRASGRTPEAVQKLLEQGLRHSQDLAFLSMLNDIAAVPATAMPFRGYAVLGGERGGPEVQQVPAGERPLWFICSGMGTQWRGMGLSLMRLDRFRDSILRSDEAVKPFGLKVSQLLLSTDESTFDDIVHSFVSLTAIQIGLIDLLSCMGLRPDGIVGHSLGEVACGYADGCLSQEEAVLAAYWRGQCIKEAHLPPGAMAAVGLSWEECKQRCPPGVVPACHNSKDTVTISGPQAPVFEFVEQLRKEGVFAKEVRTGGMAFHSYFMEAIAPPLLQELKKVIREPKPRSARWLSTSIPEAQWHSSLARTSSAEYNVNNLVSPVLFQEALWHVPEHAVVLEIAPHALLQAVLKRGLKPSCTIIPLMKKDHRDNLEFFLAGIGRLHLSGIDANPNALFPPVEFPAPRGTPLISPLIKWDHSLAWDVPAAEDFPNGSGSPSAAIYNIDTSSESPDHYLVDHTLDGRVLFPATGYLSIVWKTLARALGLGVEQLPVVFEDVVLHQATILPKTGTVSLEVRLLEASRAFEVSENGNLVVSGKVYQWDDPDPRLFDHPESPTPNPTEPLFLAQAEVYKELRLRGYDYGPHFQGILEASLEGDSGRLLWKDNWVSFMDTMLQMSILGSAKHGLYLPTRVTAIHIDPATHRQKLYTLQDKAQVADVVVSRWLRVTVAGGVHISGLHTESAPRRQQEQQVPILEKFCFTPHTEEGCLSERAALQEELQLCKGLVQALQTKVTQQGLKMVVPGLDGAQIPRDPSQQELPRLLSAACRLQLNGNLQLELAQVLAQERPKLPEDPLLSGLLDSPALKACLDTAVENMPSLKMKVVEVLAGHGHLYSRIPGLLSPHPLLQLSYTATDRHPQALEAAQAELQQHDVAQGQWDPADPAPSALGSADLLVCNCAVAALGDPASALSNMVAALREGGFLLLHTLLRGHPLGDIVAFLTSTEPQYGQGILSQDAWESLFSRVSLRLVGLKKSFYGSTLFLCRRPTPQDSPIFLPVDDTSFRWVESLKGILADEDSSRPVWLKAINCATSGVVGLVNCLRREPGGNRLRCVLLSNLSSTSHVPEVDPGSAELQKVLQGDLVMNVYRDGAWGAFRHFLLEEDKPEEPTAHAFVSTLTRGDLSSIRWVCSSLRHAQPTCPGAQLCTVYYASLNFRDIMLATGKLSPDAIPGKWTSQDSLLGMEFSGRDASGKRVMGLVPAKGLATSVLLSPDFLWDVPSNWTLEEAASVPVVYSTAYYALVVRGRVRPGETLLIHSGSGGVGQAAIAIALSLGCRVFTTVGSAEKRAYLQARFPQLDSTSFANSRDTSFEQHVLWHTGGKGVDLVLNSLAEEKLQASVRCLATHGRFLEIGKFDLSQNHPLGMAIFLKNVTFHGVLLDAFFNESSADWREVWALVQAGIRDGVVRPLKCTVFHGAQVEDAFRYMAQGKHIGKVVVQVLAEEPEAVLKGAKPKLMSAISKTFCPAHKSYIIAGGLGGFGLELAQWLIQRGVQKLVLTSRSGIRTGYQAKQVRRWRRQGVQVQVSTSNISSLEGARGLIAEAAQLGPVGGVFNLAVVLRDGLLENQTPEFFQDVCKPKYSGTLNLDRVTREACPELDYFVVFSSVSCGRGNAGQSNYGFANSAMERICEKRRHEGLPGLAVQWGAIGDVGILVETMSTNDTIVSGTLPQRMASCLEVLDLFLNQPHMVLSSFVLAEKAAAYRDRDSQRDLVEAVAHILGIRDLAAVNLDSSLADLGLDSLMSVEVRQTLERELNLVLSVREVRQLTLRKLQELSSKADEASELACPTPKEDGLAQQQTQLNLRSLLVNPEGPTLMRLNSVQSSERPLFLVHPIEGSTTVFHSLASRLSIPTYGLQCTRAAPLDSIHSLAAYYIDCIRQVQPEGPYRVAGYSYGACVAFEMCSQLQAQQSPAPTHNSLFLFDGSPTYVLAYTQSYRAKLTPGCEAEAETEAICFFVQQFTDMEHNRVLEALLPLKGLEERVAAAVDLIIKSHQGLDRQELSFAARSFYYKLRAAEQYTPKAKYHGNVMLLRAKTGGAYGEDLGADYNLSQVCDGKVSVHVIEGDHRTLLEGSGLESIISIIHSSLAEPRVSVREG

Row | inhibition at 100 µM [%] | SMILES | IC50, inhibition of human Fatty Acid Synthase
1 | 90.3 | Cc1ccc(C(=O)N2CCC(c3ccc(C#N)cc3)CC2)cc1NC(=O)NCCNC(=O)CC(=O)N(C)C [Example 231, N-[2-[[5-[4-(4-cyanophenyl)piperidine-1-carbonyl]-2-methyl-phenyl]carbamoylamino]ethyl]-N′,N′-dimethyl-propanediamide] | 
2 | 102 | Cc1ccc(C(=O)N2CCC(c3ccc(C#N)cc3)CC2)cc1NC(=O)NC1CCCN(C)C1 (racemic) [Example 255, (RS)-1-[5-[4-(4-cyanophenyl)piperidine-1-carbonyl]-2-methyl-phenyl]-3-(1-methyl-3-piperidyl)urea] | 
3 | 94.5 | CC(=O)N1CC(NC(=O)Nc2cc(C(=O)N3CCC(c4ccc(C#N)cc4)CC3)ccc2C)C1 [Example 310, 3-(1-acetylazetidin-3-yl)-1-[5-[4-(4-cyanophenyl)piperidine-1-carbonyl]-2-methyl-phenyl]urea] | 
4 | 63.7 | CCCN(C(=O)Nc1cc(C(=O)N2CCC(c3ccc(C#N)cc3)CC2)ccc1C)C1CCS(=O)(=O)C1 (stereo not shown) [Example 397, 3-[5-[4-(4-cyanophenyl)piperidine-1-carbonyl]-2-methylphenyl]-1-(1,1-dioxothiolan-3-yl)-1-propylurea] | 
5 | 93.1 | Cc1ccc(C(=O)N2CCC(c3cccc(C#N)c3)CC2)cc1NC(=O)NC(C)C [Example 327, 1-[5-[4-(3-cyanophenyl)piperidine-1-carbonyl]-2-methyl-phenyl]-3-propan-2-yl-urea] | 
6 | 74.8 | Cc1ccc(NC(=O)N(C)C)cc1C(=O)N1CCC(c2ccc(C#N)cc2)CC1 [Example 380, 3-[3-[4-(4-cyanophenyl)piperidine-1-carbonyl]-4-methylphenyl]-1,1-dimethylurea] | 
7 | 90.6 | Cc1ccc(C(=O)N2CCC(c3ccc(C#N)cc3)CC2)cc1NC(=O)NCCC(=O)N(CCO)CCO [Example 242, 3-[[5-[4-(4-cyanophenyl)piperidine-1-carbonyl]-2-methyl-phenyl]carbamoylamino]-N,N-bis(2-hydroxyethyl)propanamide] | 
8 | 106 | CC(=O)N1CC[C@@H](NC(=O)Nc2cc(C(=O)N3CCC(c4ccc(C#N)cc4)CC3)ccc2C)C1 [Example 275, 3-[(3R)-1-acetylpyrrolidin-3-yl]-1-[5-[4-(4-cyanophenyl)piperidine-1-carbonyl]-2-methyl-phenyl]urea] | 
9 | 91.7 | Cc1ccc(C(=O)N2CCC(c3ccc(C#N)cc3)CC2)cc1NC(=O)NCC(O)COc1ccccc1Cl (stereo not shown) [Example 196, 3-[3-(2-chlorophenoxy)-2-hydroxy-propyl]-1-[5-[4-(4-cyanophenyl)piperidine-1-carbonyl]-2-methyl-phenyl]urea] | 
10 | 86.2 | Cc1ccc(C(=O)N2CCC(c3ccc(C#N)cc3)CC2)cc1NC(=O)NCc1cc(C)n(C)n1 [Example 257, 1-[5-[4-(4-cyanophenyl)piperidine-1-carbonyl]-2-methyl-phenyl]-3-[(1,5-dimethylpyrazol-3-yl)methyl]urea] | 
11 | 85.1 | Cc1ccc(C(=O)N2CCC(c3ccc(C#N)cc3)CC2)cc1NC(=O)N[C@@H](CO)C(N)=O [Example 192, (2S)-2-[[5-[4-(4-cyanophenyl)piperidine-1-carbonyl]-2-methyl-phenyl]carbamoylamino]-3-hydroxy-propanamide] | 
12 | 85.1 | COCCNC(=O)Nc1ccc(C)c(C(=O)N2CCC(c3ccc(C#N)cc3)CC2)c1 [Example 417, 1-[3-[4-(4-cyanophenyl)piperidine-1-carbonyl]-4-methylphenyl]-3-(2-methoxyethyl)urea] | 
13 | 86.3 | Cc1ccc(C(=O)N2CCC(c3ccc(F)cc3)CC2)cc1NC(=O)NCCN(C)C(=O)OC(C)(C)C [Example 347, tert-butyl N-[2-[[5-[4-(4-fluorophenyl)piperidine-1-carbonyl]-2-methyl-phenyl]carbamoylamino]ethyl]-N-methyl-carbamate] | 

Further lines, the molecule ahead of its results:

Row | SMILES | inhibition at 100 µM [%] | IC50, inhibition of human Fatty Acid Synthase
14 | Cc1ccc(C(=O)N2CCC(c3ccc(C#N)cc3)CC2)cc1NC(=O)NCc1cncn1C [Example 150, 1-[5-[4-(4-cyanophenyl)piperidine-1-carbonyl]-2-methyl-phenyl]-3-[(3-methylimidazol-4-yl)methyl]urea] | 85 | 
15 | Cc1ccc(C(=O)N2CCC(c3ccc(C#N)cc3)CC2)cc1NC(=O)NCCNS(C)(=O)=O [Example 109, 1-[5-[4-(4-cyanophenyl)piperidine-1-carbonyl]-2-methyl-phenyl]-3-(2-methanesulfonamidoethyl)urea] | 98.3 | 
16 | COCCN(C)C(=O)Nc1cc(C(=O)N2CCC(c3ccc(C#N)cc3)CC2)ccc1C [3-[5-[4-(4-cyanophenyl)piperidine-1-carbonyl]-2-methylphenyl]-1-(2-methoxyethyl)-1-methylurea] |  | do not have IC50s in the range of about 0.001 μM to about 30 μM
17 | CCS(=O)(=O)NCCNC(=O)Nc1cc(C(=O)N2CCC(c3ccc(C#N)cc3)CC2)ccc1C [Example 110, 3-[5-[4-(4-cyanophenyl)piperidine-1-carbonyl]-2-methyl-phenyl]-1-[2-(ethylsulfonylamino)ethyl]urea] | 94.2 | 
18 | Cc1ccc(C(=O)N2CCC(O)(c3ccccc3F)CC2)cc1NC(=O)NC(C)C [1-[5-[4-(2-fluorophenyl)-4-hydroxypiperidine-1-carbonyl]-2-methylphenyl]-3-propan-2-ylurea] |  | do not have IC50s in the range of about 0.001 μM to about 30 μM
19 | Cc1ccc(C(=O)N2CCC(c3ccc(C#N)cc3)CC2)cc1NC(=O)N[C@@H](CC(C)C)C(N)=O [Example 73, (2S)-2-[[5-[4-(4-cyanophenyl)piperidine-1-carbonyl]-2-methyl-phenyl]carbamoylamino]-4-methyl-pentanamide] | 78.2 | 
20 | COc1ccc(CCNC(=O)Nc2cc(C(=O)N3CCC(c4ccc(C#N)cc4)CC3)ccc2C)cc1 [Example 64, 1-[5-[4-(4-cyanophenyl)piperidine-1-carbonyl]-2-methyl-phenyl]-3-[2-(4-methoxyphenyl)ethyl]urea] | 94 | 
21 | Cc1ccc(C(=O)N2CCC(c3ccc(C#N)cc3)CC2)cc1NC(=O)N[C@@H](C)c1ccccc1 [Example 105, 1-[5-[4-(4-cyanophenyl)piperidine-1-carbonyl]-2-methyl-phenyl]-3-[(1S)-1-phenylethyl]urea] | 92.7 | 
22 | Cc1ccc(C(=O)N2CCC(c3cccc(F)c3)CC2)cc1NC(=O)NC(C)C [1-[5-[4-(3-fluorophenyl)piperidine-1-carbonyl]-2-methylphenyl]-3-propan-2-ylurea] |  | do not have IC50s in the range of about 0.001 μM to about 30 μM
23 | CCC(=O)NCCNC(=O)Nc1cc(C(=O)N2CCC(c3ccc(C#N)cc3)CC2)ccc1C [Example 111, N-[2-[[5-[4-(4-cyanophenyl)piperidine-1-carbonyl]-2-methyl-phenyl]carbamoylamino]ethyl]propanamide] | 95.6 | 
24 | Cc1ccc(C(=O)N2CCC(c3ccc(C#N)cc3)CC2)cc1NC(=O)NCCc1ccc(S(N)(=O)=O)cc1 [Example 57, 1-[5-[4-(4-cyanophenyl)piperidine-1-carbonyl]-2-methyl-phenyl]-3-[2-(4-sulfamoylphenyl)ethyl]urea] | 96.8 | 
25 | Cc1ccc(C(=O)N2CCC(c3ccc(C#N)cc3)CC2)cc1NC(=O)NCCC(N)=O [Example 126, 3-[[5-[4-(4-cyanophenyl)piperidine-1-carbonyl]-2-methyl-phenyl]carbamoylamino]propanamide] | 87.4 | 
26 | Cc1ccc(C(=O)N2CCC(c3ccc(C#N)cc3)CC2)cc1NC(=O)NCc1cc(=O)[nH]o1 [Example 136, 1-[5-[4-(4-cyanophenyl)piperidine-1-carbonyl]-2-methyl-phenyl]-3-[(3-oxo-1,2-oxazol-5-yl)methyl]urea] | 80.9 | 
27 | Cc1ccc(C(=O)N2CCC(c3ccc(C#N)cc3)CC2)cc1NC(=O)NCc1nnn[nH]1 [Example 82, 1-[5-[4-(4-cyanophenyl)piperidine-1-carbonyl]-2-methyl-phenyl]-3-(1H-tetrazol-5-ylmethyl)urea] | 82 | 
28 | Cc1ccc(C(=O)N2CCC(c3ccc(C#N)cc3)CC2)cc1NC(=O)NC(C)C [Example 3, 3-[5-[4-(4-cyanophenyl)piperidine-1-carbonyl]-2-methyl-phenyl]-1-propan-2-yl-urea] | 95.6 | 
29 | Cc1ccc(C(=O)N2CCC(c3ccc(C#N)cc3)CC2)cc1NC(=O)NCCCN1CCCC(C)C1 (stereo not shown) [Example 100, 1-[5-[4-(4-cyanophenyl)piperidine-1-carbonyl]-2-methyl-phenyl]-3-[3-(3-methyl-1-piperidyl)propyl]urea] | 77.8 | 
30 | Cc1ccc(NC(=O)N[C@H](C)c2ccccc2)cc1C(=O)N1CCC(c2ccc(C#N)cc2)CC1 [Example 37, 3-[3-[4-(4-cyanophenyl)piperidine-1-carbonyl]-4-methyl-phenyl]-1-[(1R)-1-phenylethyl]urea] | 74.3 | 
31 | Cc1ccc(C(=O)N2CCC(c3ccc(C#N)cc3)CC2)cc1NC(=O)NCCCCCNC(=O)N1CCOCC1 [Example 173, N-[5-[[5-[4-(4-cyanophenyl)piperidine-1-carbonyl]-2-methyl-phenyl]carbamoylamino]pentyl]morpholine-4-carboxamide] | 95.5 | 
32 | Cc1ccc(C(=O)N2CCC(c3ccc(C#N)cc3)CC2)cc1NC(=O)NC1CCN(Cc2ccccc2)CC1 [Example 41, 3-(1-benzyl-4-piperidyl)-1-[5-[4-(4-cyanophenyl)piperidine-1-carbonyl]-2-methyl-phenyl]urea] | 94.4 | 
33 | Cc1ccc(NC(=O)NCCc2ccccc2)cc1C(=O)N1CCC(c2ccc(C#N)cc2)CC1 [Example 26, 1-[3-[4-(4-cyanophenyl)piperidine-1-carbonyl]-4-methyl-phenyl]-3-phenethyl-urea] | 82.9 | 
34 | COC(=O)[C@@H](NC(=O)Nc1cc(C(=O)N2CCC(c3ccc(C#N)cc3)CC2)ccc1C)C(C)C [Methyl (2S)-2-[[5-[4-(4-cyanophenyl)piperidine-1-carbonyl]-2-methylphenyl]carbamoylamino]-3-methylbutanoate] |  | do not have IC50s in the range of about 0.001 μM to about 30 μM
